The values below come from patent EP0048827A1, “Substituted 2,4-dichlorophenyl-imidazolyl-vinyl ketones, processes for their preparation and antimicrobial agents containing these compounds” (BAYER AG, priority 1980, dated 1982).

The test system of this experiment is Dermatophyten und Schimmelpilze; Hefen. The experiment can be described thus: Antimycotic in-vitro activity, serial dilution test. Type of experiment: cell-based. Conditions: 28°C, 24 h for yeasts, 96 h for dermatophytes and moulds, compared with the prior-art compound (A). As for the experimental part:
Die in-vitro-Prüfung wurde im Reihenverdünnungstest mit Keiminokula von durchschnittlich […] Substrat durchgeführt. Als Nährmedium dienten • a) für Dermatophyten und Schimmelpilze: Sabourand's milieu d'epresive • b) für Hefen: Isotonic Sensitest-Broth von Oxid.
Die Bebrütungstemperatur betrug 28°C; Bebrütungsdauer war 24 Stunden bei Hefen und 96 Stunden bei Dermatophyten und Schimmelpilzen.
Consider `CCC(C)C=C(C(=O)c1ccc(Cl)cc1Cl)n1ccnc1` (centres unmarked) [Beispiel 6], for which the “antimykotische Wirkung” value is on record as “bessere antimykotische Wirkung als die aus dem Stand der Technik bekannte Verbindung (A)”.
Turning to `CCCC(C)C=C(C(=O)c1ccc(Cl)cc1Cl)n1ccnc1` (centres unmarked) [Beispiel 7], the “antimykotische Wirkung” value is “bessere antimykotische Wirkung als die aus dem Stand der Technik bekannte Verbindung (A)”.
For the compound `CCCCC(C=C(C(=O)c1ccc(Cl)cc1Cl)n1ccnc1)CC` (centres unmarked) [Beispiel 9], the “antimykotische Wirkung” value was “bessere antimykotische Wirkung als die aus dem Stand der Technik bekannte Verbindung (A)”.
Consider “1-(2,4-Dichlorphenyl)-2-Eimidazol-1-yl)-3-(methylcyclohexen-3-yl)-2-propen-l-on [Beispiel 1]”, for which the “antimykotische Wirkung” value is listed as “bessere antimykotische Wirkung als die aus dem Stand der Technik bekannte Verbindung (A)”.
With `CCC(C=C(C(=O)c1ccc(Cl)cc1Cl)n1ccnc1)CC` [Beispiel 5], the “antimykotische Wirkung” value is “bessere antimykotische Wirkung als die aus dem Stand der Technik bekannte Verbindung (A)”.
